Type in all cases: cell-based
In one test the target is T1, rat SLC39A8 (Rattus norvegicus, UniProt Q5FVQ0, Y328C).
T1 sequence (Q5FVQ0 20-462 Y328C): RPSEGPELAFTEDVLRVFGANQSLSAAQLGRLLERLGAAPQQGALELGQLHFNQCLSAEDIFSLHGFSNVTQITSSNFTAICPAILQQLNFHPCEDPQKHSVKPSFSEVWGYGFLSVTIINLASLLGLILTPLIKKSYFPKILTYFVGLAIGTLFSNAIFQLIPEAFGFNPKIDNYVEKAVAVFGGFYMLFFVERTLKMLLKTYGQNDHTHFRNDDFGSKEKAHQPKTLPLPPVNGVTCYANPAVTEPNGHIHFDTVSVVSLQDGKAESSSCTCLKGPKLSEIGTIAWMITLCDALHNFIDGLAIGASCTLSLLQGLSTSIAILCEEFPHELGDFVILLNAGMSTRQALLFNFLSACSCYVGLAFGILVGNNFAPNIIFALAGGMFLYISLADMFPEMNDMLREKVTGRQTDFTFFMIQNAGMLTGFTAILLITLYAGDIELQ
Description: Cd uptake in cells expressing mutant rat SLC39A8 (gain of EFV sensitivity).

The target of another test is T2, mouse SLC39A8 (Mus musculus, UniProt Q91W10).
T2 sequence (Q91W10 20-462): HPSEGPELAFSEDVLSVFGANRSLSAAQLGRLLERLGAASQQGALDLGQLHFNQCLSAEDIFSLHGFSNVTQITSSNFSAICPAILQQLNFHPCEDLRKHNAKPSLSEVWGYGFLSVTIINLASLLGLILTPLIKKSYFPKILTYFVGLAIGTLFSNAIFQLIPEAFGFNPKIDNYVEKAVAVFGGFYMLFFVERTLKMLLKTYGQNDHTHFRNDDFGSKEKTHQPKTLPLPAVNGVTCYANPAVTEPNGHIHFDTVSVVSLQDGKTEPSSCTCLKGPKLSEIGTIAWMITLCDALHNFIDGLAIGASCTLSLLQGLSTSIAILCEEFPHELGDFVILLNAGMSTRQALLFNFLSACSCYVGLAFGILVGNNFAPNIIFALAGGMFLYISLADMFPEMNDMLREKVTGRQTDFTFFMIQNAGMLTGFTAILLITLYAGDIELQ
Briefly: Cd uptake in cells expressing mouse SLC39A8.

The next test concerns the target T3, pig SLC39A8 (Sus scrofa, UniProt A0A480EKF5, F327C).
T3 sequence (A0A480EKF5 20-461 F327C): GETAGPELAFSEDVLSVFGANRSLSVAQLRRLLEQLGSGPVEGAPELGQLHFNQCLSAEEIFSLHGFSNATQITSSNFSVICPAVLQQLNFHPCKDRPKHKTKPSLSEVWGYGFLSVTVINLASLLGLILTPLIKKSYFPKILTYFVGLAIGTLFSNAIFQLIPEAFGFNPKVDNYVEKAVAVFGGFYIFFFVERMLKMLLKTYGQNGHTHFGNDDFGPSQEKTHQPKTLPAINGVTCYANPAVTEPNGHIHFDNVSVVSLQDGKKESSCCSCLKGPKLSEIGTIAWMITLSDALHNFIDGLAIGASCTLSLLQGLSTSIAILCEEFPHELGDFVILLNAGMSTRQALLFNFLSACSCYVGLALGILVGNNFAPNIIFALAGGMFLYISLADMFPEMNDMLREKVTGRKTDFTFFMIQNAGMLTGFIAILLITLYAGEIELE
Briefly: Cd uptake in cells expressing mutant pig SLC39A8 (gain of EFV sensitivity).

Molecules are shown by their SMILES.

`O=C1Nc2ccc(Cl)cc2[C@@](C#CC2CC2)(C(F)(F)F)O1` [compound 1, efavirenz]: the “Cd uptake in cells expressing mutant rat SLC39A8 (gain of EFV sensitivity)” value at rat SLC39A8 was “EFV sensitivity could be created by replacing these residues with cysteine in pig F327C and rat Y328C, respectively”. In addition, the “Cd uptake in cells expressing mouse SLC39A8” value on mouse SLC39A8 is “EFV was able to enhance Cd uptake in cells expressing mouse SLC39A8 but not chicken, frog, or zebrafish”. The “Cd uptake in cells expressing mutant pig SLC39A8 (gain of EFV sensitivity)” value at pig SLC39A8 was “EFV sensitivity could be created by replacing these residues with cysteine in pig F327C and rat Y328C, respectively”.

Source of the values: paper PMC12578388, “Allosteric modulation of the solute carrier transporter SLC39A8 potentiates manganese and cadmium uptake” (The Journal of Clinical Investigation, 2025).
